Laboratory results from ChEMBL document CHEMBL1201862, “PubChem BioAssay data set” (2004).
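All cell lines were grown in 96-well plates and treated with compound for 48 hours. Here, GI50 denotes the concentration required for 50% inhibition of growth.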 Active and inactive are the calls of the source. Rule as the data show it: active = GI50 up to about 1.1 µM and inactive = higher.

Key:
Assay in all cases: NCI anticancer screen, dose series, 48 h
[1] = tested on: ACHN
[2] = tested on: CCRF-CEM
[3] = tested on: COLO 205
[4] = tested on: EKVX
[5] = tested on: HCT-15
[6] = tested on: HOP-62
[7] = tested on: HT-29
[8] = tested on: KM12
[9] = tested on: M14
[10] = tested on: MCF7
[11] = tested on: OVCAR-5
[12] = tested on: OVCAR-8
[13] = tested on: SF-295
[14] = tested on: SF-539
[15] = tested on: SK-MEL-5
[16] = tested on: SW-620
[17] = tested on: TK-10
[18] = tested on: UACC-257
[19] = tested on: UACC-62
[20] = tested on: UO-31

| Structure (SMILES) | GI50 [1] | GI50 [2] | GI50 [3] | GI50 [4] | GI50 [5] [µM] | GI50 [6] | GI50 [7] | GI50 [8] | GI50 [9] | GI50 [10] | GI50 [11] | GI50 [12] | GI50 [13] | GI50 [14] | GI50 [15] | GI50 [16] | GI50 [17] | GI50 [18] | GI50 [19] | GI50 [20] |
| --- | --- | --- | --- | --- | --- | --- | --- | --- | --- | --- | --- | --- | --- | --- | --- | --- | --- | --- | --- | --- |
| CCC1CN2CCc3cc(OC)c(OC)cc3C2CC1CC1c2cc(OC)c(OC)cc2CCN1C(=O)C(Cc1c[nH]c2ccccc12)NC(=O)OC(C)(C)C (centres undefined) | 3.84 µM (inactive) | 3.1 µM (inactive) | 1.57 µM (inactive) | 5.7 µM (inactive) | 2.58 | 4.91 µM (inactive) | 2.03 µM (inactive) | 2.83 µM (inactive) | 1.79 µM (inactive) | 2.31 µM (inactive) | 8.81 µM (inactive) | 3.27 µM (inactive) | 3.97 µM (inactive) | 2.34 µM (inactive) | 1.67 µM (inactive) | 2.82 µM (inactive) | 7.83 µM (inactive) | 2.71 µM (inactive) | 5.64 µM (inactive) | 2.77 µM (inactive) |
| N#CC(C#N)SCc1ccccc1 | 40.4 µM (inactive) | 1.7 µM (inactive) | 15.6 µM (inactive) | > 96.2 µM (inactive) | 31.1 | 15.7 µM (inactive) | 27.4 µM (inactive) | 19.7 µM (inactive) | 11.5 µM (inactive) | 4.55 µM (inactive) | 17.3 µM (inactive) | 15 µM (inactive) | 16.8 µM (inactive) | 5.19 µM (inactive) | 11.9 µM (inactive) | 4.59 µM (inactive) | 26.5 µM (inactive) | 23.1 µM (inactive) | 34.4 µM (inactive) | 20.1 µM (inactive) |
| CCCSc1cc(Cl)c(C)cc1S(=O)(=O)n1ccnc1OCCCN(C)C | > 100 µM (inactive) | > 100 µM (inactive) | > 100 µM (inactive) | > 100 µM (inactive) | > 100 | > 100 µM (inactive) | > 100 µM (inactive) | > 100 µM (inactive) | > 100 µM (inactive) | > 100 µM (inactive) | > 100 µM (inactive) | > 100 µM (inactive) | > 100 µM (inactive) | > 100 µM (inactive) | > 100 µM (inactive) | > 100 µM (inactive) | > 100 µM (inactive) | > 100 µM (inactive) | > 100 µM (inactive) | > 100 µM (inactive) |
| CO/C(=C/C(=O)C(Cl)(Cl)Cl)CC/C(=C\C(=O)C(Cl)(Cl)Cl)OC | 24.5 µM (inactive) | 24.3 µM (inactive) | 40.7 µM (inactive) | 20.4 µM (inactive) | 22.5 | 20.8 µM (inactive) | 25 µM (inactive) | 27.7 µM (inactive) | 28.2 µM (inactive) | 24.2 µM (inactive) | 27.8 µM (inactive) | 21.9 µM (inactive) | 36.3 µM (inactive) | 23.6 µM (inactive) | 34.2 µM (inactive) | 53 µM (inactive) | 30.8 µM (inactive) | 19.2 µM (inactive) | 22 µM (inactive) | 20.5 µM (inactive) |
| Cc1ccc([S+]([O-])c2sccc2C=O)cc1 (centres undefined) | 63 µM (inactive) | 20 µM (inactive) | 41 µM (inactive) | 26.2 µM (inactive) | 27.7 | 31.3 µM (inactive) | 19.8 µM (inactive) | 27.7 µM (inactive) | 20 µM (inactive) | 21.4 µM (inactive) | 49.2 µM (inactive) | 23.1 µM (inactive) | 23.7 µM (inactive) | 21 µM (inactive) | 29.1 µM (inactive) | 24.2 µM (inactive) | > 100 µM (inactive) | 53.5 µM (inactive) | 19.3 µM (inactive) | 70.1 µM (inactive) |
| COc1c(/C=C/C=O)cc2c(c1OC)OCO2 | 27.3 µM (inactive) | 22.1 µM (inactive) | > 100 µM (inactive) | 55.3 µM (inactive) | 15.3 | 25.5 µM (inactive) | 24.2 µM (inactive) | 12 µM (inactive) | 24.2 µM (inactive) | 28 µM (inactive) | 7.41 µM (inactive) | 33.6 µM (inactive) | 21.2 µM (inactive) | 35 µM (inactive) | 21.1 µM (inactive) | 51.2 µM (inactive) | 40.4 µM (inactive) | 48.1 µM (inactive) | 19.3 µM (inactive) | 35.9 µM (inactive) |
| COc1c2c(nc3ccccc13)-c1cc(C(CC(=O)OC(C)(C)C)C(=O)OC(C)C)c(CO)c(=O)n1C2 (centres undefined) | 21.9 µM (inactive) | 4.48 µM (inactive) | 88.5 µM (inactive) | > 100 µM (inactive) | > 78.2 | 24.9 µM (inactive) | 58.5 µM (inactive) | > 100 µM (inactive) | 39 µM (inactive) | 6.85 µM (inactive) | 98.6 µM (inactive) | 71.1 µM (inactive) | 29.2 µM (inactive) | 36.9 µM (inactive) | 43.5 µM (inactive) | > 96.6 µM (inactive) | > 100 µM (inactive) | > 100 µM (inactive) | 17.8 µM (inactive) | > 36.7 µM (inactive) |
| N#Cc1c(C#N)c(-c2ccccc2)n(Cc2ccccc2)c1N | > 100 µM (inactive) | > 100 µM (inactive) | > 100 µM (inactive) | > 100 µM (inactive) | > 100 | 51.1 µM (inactive) | > 100 µM (inactive) | > 100 µM (inactive) | > 100 µM (inactive) | > 100 µM (inactive) | > 100 µM (inactive) | 28.4 µM (inactive) | > 100 µM (inactive) | 26 µM (inactive) | > 100 µM (inactive) | > 100 µM (inactive) | > 100 µM (inactive) | > 100 µM (inactive) | > 100 µM (inactive) | > 100 µM (inactive) |
| COc1cc(/C=C2\C[C@H]3[C@@H]4CC=C5C[C@@H](OC(C)=O)CC[C@]5(C)[C@H]4CC[C@]3(C)\C2=N\O)cc(OC)c1OC | 3.75 µM (inactive) | 4.08 µM (inactive) | 3.76 µM (inactive) | 4.71 µM (inactive) | 4.42 | 13.1 µM (inactive) | 5.15 µM (inactive) | 4.06 µM (inactive) | 5.73 µM (inactive) | 4.2 µM (inactive) | 15 µM (inactive) | 4.29 µM (inactive) | 3.21 µM (inactive) | 4.33 µM (inactive) | 3.61 µM (inactive) | 7 µM (inactive) | 13.7 µM (inactive) | 5.74 µM (inactive) | 6.73 µM (inactive) | 3.86 µM (inactive) |
| CCCCCOc1ccc(NC2=C(Cl)C(=O)c3c(O)ccc(O)c3C2=O)cc1 | > 10 µM (inactive) | 3.52 µM (inactive) | 2.63 µM (inactive) | > 10 µM (inactive) | 2.02 | 5.85 µM (inactive) | 4.75 µM (inactive) | 4.14 µM (inactive) | 3.03 µM (inactive) | 1.33 µM (inactive) | > 10 µM (inactive) | 2.99 µM (inactive) | > 10 µM (inactive) | 6.52 µM (inactive) | 5.43 µM (inactive) | 3.87 µM (inactive) | 5.97 µM (inactive) | 6.15 µM (inactive) | 5.42 µM (inactive) | 5.26 µM (inactive) |
| COC(=O)c1cc(/C=C/C(=O)Cc2ccccc2)cn1S(=O)(=O)c1ccccc1 | > 100 µM (inactive) | > 100 µM (inactive) | > 100 µM (inactive) | > 100 µM (inactive) | 7.38 | > 100 µM (inactive) | > 100 µM (inactive) | > 100 µM (inactive) | > 100 µM (inactive) | > 100 µM (inactive) | > 100 µM (inactive) | > 100 µM (inactive) | > 100 µM (inactive) | > 100 µM (inactive) | > 100 µM (inactive) |  | > 100 µM (inactive) | > 100 µM (inactive) | > 100 µM (inactive) | > 100 µM (inactive) |
| CC1(C)C=Cc2c(cc3oc4ccc5c(c4c(=O)c3c2O)C=CC(C)(C)O5)O1 | > 100 µM (inactive) | > 100 µM (inactive) | > 100 µM (inactive) | > 100 µM (inactive) | > 100 | > 100 µM (inactive) | > 100 µM (inactive) | > 100 µM (inactive) | > 100 µM (inactive) | > 100 µM (inactive) | > 100 µM (inactive) | > 100 µM (inactive) | > 100 µM (inactive) | > 100 µM (inactive) | > 100 µM (inactive) | > 100 µM (inactive) | > 100 µM (inactive) | > 100 µM (inactive) | > 100 µM (inactive) | > 100 µM (inactive) |
| CC(=O)NNc1nc(C)c(C(/C=C/c2ccc([N+](=O)[O-])cc2)=N/NC(N)=O)s1 | > 100 µM (inactive) | > 100 µM (inactive) | > 100 µM (inactive) | 44.8 µM (inactive) | > 100 | > 100 µM (inactive) | > 100 µM (inactive) | > 100 µM (inactive) | > 100 µM (inactive) | > 100 µM (inactive) | > 100 µM (inactive) | > 100 µM (inactive) | > 100 µM (inactive) | > 100 µM (inactive) | > 100 µM (inactive) | > 100 µM (inactive) | > 100 µM (inactive) | > 100 µM (inactive) | > 100 µM (inactive) | > 100 µM (inactive) |
| Cc1ccc(S(=O)(=O)NC(CO)C(=O)O)cc1 (centres undefined) | > 100 µM (inactive) | > 100 µM (inactive) | > 100 µM (inactive) | > 100 µM (inactive) | > 100 | > 100 µM (inactive) | > 100 µM (inactive) | > 100 µM (inactive) | > 100 µM (inactive) | > 100 µM (inactive) | > 100 µM (inactive) | > 100 µM (inactive) | > 100 µM (inactive) | > 100 µM (inactive) | > 100 µM (inactive) | > 100 µM (inactive) | > 100 µM (inactive) | > 100 µM (inactive) | > 100 µM (inactive) | > 100 µM (inactive) |
